Data published in US8822503B2, “2-pyridone compounds” (Taisho Pharmaceutical Co., Ltd, priority 2009, dated 2014).

These compounds were tested against T1, human liver GK (Homo sapiens, UniProt P35557) (assay: GK activation test). Conditions: test compound concentration needed to activate 50% of maximum activation ability; 4 mM 14C-labeled glucose, 2 mM ATP, room temperature, 20 minutes.
T1 construct: GST (glutathione S-transferase) (N); made in house; host or cells: E. coli
T1 sequence (P35557 1-466 isoform P35557-2): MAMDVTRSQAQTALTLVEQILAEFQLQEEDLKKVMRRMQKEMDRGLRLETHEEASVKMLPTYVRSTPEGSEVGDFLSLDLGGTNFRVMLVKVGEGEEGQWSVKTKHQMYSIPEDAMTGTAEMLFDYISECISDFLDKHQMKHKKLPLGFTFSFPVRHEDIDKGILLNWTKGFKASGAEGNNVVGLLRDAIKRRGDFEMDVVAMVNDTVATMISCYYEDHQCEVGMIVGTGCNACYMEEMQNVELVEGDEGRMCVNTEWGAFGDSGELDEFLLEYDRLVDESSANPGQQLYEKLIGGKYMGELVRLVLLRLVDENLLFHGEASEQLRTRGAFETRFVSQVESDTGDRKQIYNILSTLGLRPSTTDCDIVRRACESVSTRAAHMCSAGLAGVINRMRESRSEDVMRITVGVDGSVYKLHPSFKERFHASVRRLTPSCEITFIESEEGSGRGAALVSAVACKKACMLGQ
Assay type: biochemical
Procedure, shortened: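 GST-tagged human liver GK from E. coli (0.24 μg/well) with 4 mM 14C-glucose, 2 mM ATP in Hepes-KOH pH 7.1, KCl, MgCl2, DTT, 1% DMSO, 20 min room temperature. Labeled glucose 6-phosphate captured on anion resin, eluted and counted. EC50 = concentration giving half of maximal activation.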

Row | EC50 [µM] | Compound
1 | 3 to 10 | CC(C)(C)c1ccc(/C(=C\C(=O)N2CCCC2)c2ccc(Cl)c(=O)[nH]2)cc1 [Example 6-15, 6-[(1E)-1-(4-tert-Butylphenyl)-3-oxo-3-(pyrrolidin-1-yl)prop-1-en-1-yl]-3-chloropyridin-2(1H)-one]
2 | 3 to 10 | CC(C)(C)c1ccc(/C(=C\CN2CCCCCCC2=O)c2ccc(Cl)c(=O)[nH]2)cc1 [Example 6-18, 1-[(2E)-3-(4-tert-Butylphenyl)-3-(5-chloro-6-oxo-1,6-dihydropyridin-2-yl)prop-2-en-1-yl]azocan-2-one]
3 | 0.5 to 3 | O=C1OCCN1C/C=C(\c1ccc(S(=O)(=O)C2CC2)cc1)c1ccc(Cl)c(=O)[nH]1 [Example 6-21, 3-Chloro-6-[(1E)-1-[4-(cyclopropylsulfonyl)phenyl]-3-(2-oxo-1,3-oxazolidin-3-yl)prop-1-en-1-yl]pyridin-2(1H)-one]
4 | 3 to 10 | CC(C)(C)c1ccc(/C(=C\Cc2nc(=O)o[nH]2)c2ccc(Cl)c(=O)[nH]2)cc1 [Example 6-23, 6-[(1E)-1-(4-tert-Butylphenyl)-3-(5-oxo-2,5-dihydro-1,2,4-oxadiazol-3-yl)prop-1-en-1-yl]-3-chloropyridin-2(1H)-one]
5 | 3 to 10 | CC(C)(C)c1ccc(/C(=C\CCO)c2ccc(Cl)c(=O)[nH]2)cc1 [Example 6-24, 6-[(1E)-1-(4-tert-Butylphenyl)-4-hydroxybut-1-en-1-yl]-3-chloropyridin-2(1H)-one]
6 | 0.5 to 3 | Cn1ccc(=O)n(C/C=C(\c2ccc(C(C)(C)C)cc2)c2ccc(Cl)c(=O)[nH]2)c1=O [Example 6-31, 3-[(2E)-3-(4-tert-Butylphenyl)-3-(5-chloro-6-oxo-1,6-dihydropyridin-2-yl)prop-2-en-1-yl]-1-methylpyrimidine-2,4(1H, 3H)-dione]
7 | 0.5 to 3 | CC(C)(C)c1ccc(/C(=C\Cn2ncccc2=O)c2ccc(Cl)c(=O)[nH]2)cc1 [Example 6-33, 2-[(2E)-3-(4-tert-Butylphenyl)-3-(5-chloro-6-oxo-1,6-dihydropyridin-2-yl)prop-2-en-1-yl]pyridazin-3(2H)-one]
8 | 0.5 to 3 | Cc1c[nH]n(C/C=C(\c2ccc(C(C)(C)C)cc2)c2ccc(Cl)c(=O)[nH]2)c1=O [Example 6-37, 6-[(1E)-1-(4-tert-Butylphenyl)-3-(4-methyl-5-oxo-2,5-dihydro-1H-pyrazol-1-yl)prop-1-en-1-yl]-3-chloropyridin-2(1H)-one]
9 | 0.01 to 0.5 | O=c1[nH]c(C(Oc2ccc(F)cc2F)c2ccc(S(=O)(=O)C3CC3)cc2)ccc1C1CC1 (centres unmarked) [Example 7-3, 3-Cyclopropyl-6-[[4-(cyclopropylsulfonyl)phenyl](2,4-difluorophenoxy)methyl]pyridin-2(1H)-one]

The remaining lines, values behind:

Row | Compound | EC50 [µM]
10 | CC(C)(C)c1ccc(/C(=C\CCN2C(=O)CCC2=O)c2ccc(Cl)c(=O)[nH]2)cc1 [Example 6-13, 1-[(3E)-4-(4-tert-Butylphenyl)-4-(5-chloro-6-oxo-1,6-dihydropyridin-2-yl)but-3-en-1-yl]pyrrolidine-2,5-dione] | 0.5 to 3
11 | CC(C)(C)c1ccc(/C(=C\N2CCCC2=O)c2ccc(Cl)c(=O)[nH]2)cc1 [Example 6-14, 6-[(E)-1-(4-tert-Butylphenyl)-2-(2-oxopyrrolidin-1-yl)ethenyl]-3-chloropyridin-2(1H)-one] | 0.5 to 3
12 | CN1CCN(C/C=C(\c2ccc(C(C)(C)C)cc2)c2ccc(Cl)c(=O)[nH]2)C1=O [Example 6-16, 6-[(1E)-1-(4-tert-Butylphenyl)-3-(3-methyl-2-oxoimidazolidin-1-yl)prop-1-en-1-yl]-3-chloropyridin-2(1H)-one] | 0.01 to 0.5
13 | CN1CCC(C/C=C(\c2ccc(C(C)(C)C)cc2)c2ccc(Cl)c(=O)[nH]2)C1=O (centres unmarked) [Example 6-19, 6-[(1E)-1-(4-tert-Butylphenyl)-3-(1-methyl-2-oxopyrrolidin-3-yl)prop-1-en-1-yl]-3-chloropyridin-2(1H)-one] | 0.5 to 3
14 | O=C1CCCN1C/C=C(\c1ccc(S(=O)(=O)C2CC2)cc1)c1ccc(Cl)c(=O)[nH]1 [Example 6-20, 3-Chloro-6-[(1E)-1-[4-(cyclopropylsulfonyl)phenyl]-3-(2-oxopyrrolidin-1-yl)prop-1-en-1-yl]pyridin-2(1H)-one] | 0.5 to 3
15 | CC(C)c1ccc(/C(=C\CN2CCOC2=O)c2ccc(Cl)c(=O)[nH]2)cc1 [Example 6-22, 3-Chloro-6-{(1E)-3-(2-oxo-1,3-oxazolidin-3-yl)-1-[4-(propan-2-yl)phenyl]prop-1-en-1-yl}pyridin-2(1H)-one] | 0.5 to 3
16 | CC(C)(C)c1ccc(/C(=C\CCN2CCCC2=O)c2ccc(Cl)c(=O)[nH]2)cc1 [Example 6-27, 6-[(1E)-1-(4-tert-Butylphenyl)-4-(2-oxopyrrolidin-1-yl)but-1-en-1-yl]-3-chloropyridin-2(1H)-one] | 0.5 to 3
17 | CC(C)(C)c1ccc(/C(=C\Cc2ccccc2)c2ccc(Cl)c(=O)[nH]2)cc1 [Example 6-28, 6-[(1E)-1-(4-tert-Butylphenyl)-3-phenylprop-1-en-1-yl]-3-chloropyridin-2(1H)-one] | 0.5 to 3
18 | CC(C)(C)c1ccc(/C(=C\Cn2cccnc2=O)c2ccc(Cl)c(=O)[nH]2)cc1 [Example 6-32, 1-[(2E)-3-(4-tert-Butylphenyl)-3-(5-chloro-6-oxo-1,6-dihydropyridin-2-yl)prop-2-en-1-yl]pyrimidin-2(1H)-one] | 3 to 10
19 | CC(C)(C)c1ccc(/C(=C\Cn2cnccc2=O)c2ccc(Cl)c(=O)[nH]2)cc1 [Example 6-34, 3-[(2E)-3-(4-tert-Butylphenyl)-3-(5-chloro-6-oxo-1,6-dihydropyridin-2-yl)prop-2-en-1-yl]pyrimidin-4(3H)-one] | 0.5 to 3
20 | CC(=O)NC/C=C(\c1ccc(C(C)(C)C)cc1)c1ccc(Cl)c(=O)[nH]1 [Example 6-35, N-[(2E)-3-(4-tert-Butylphenyl)-3-(5-chloro-6-oxo-1,6-dihydropyridin-2-yl)prop-2-en-1-yl]acetamide] | 3 to 10
21 | O=c1[nH]c(C(OC2CCCC2)c2ccc(S(=O)(=O)C3CC3)cc2)ccc1C(F)(F)F (centres unmarked) [Example 7-2, 6-{(Cyclopentyloxy)[4-(cyclopropylsulfonyl)phenyl]methyl}-3-(trifluoromethyl)pyridin-2(1H)-one] | 3 to 10
22 | CC(C)(C)c1ccc(C(SC2CCCC2)c2ccc(Cl)c(=O)[nH]2)cc1 (centres unmarked) [Example 7-4, 6-[(4-tert-Butylphenyl)(cyclopentylsulfanyl)methyl]-3-chloropyridin-2(1H)-one] | 0.5 to 3
23 | CC(C)(C)c1ccc(C(NC2CCCC2)c2ccc(Cl)c(=O)[nH]2)cc1 (centres unmarked) [Example 7-5, 6-[(4-tert-Butylphenyl)(cyclopentylamino)methyl]-3-chloropyridin-2(1H)-one] | 3 to 10
